Assay: Homogeneity of GOA: citric acid by HPLC in eight aliquots
Type: physicochemical
Protocol: Citric acid is determined quantitatively by dissolving a known quantity of glucosamine citrate in deionized water. The solution is filtered through a 0.22μ filter into a HPLC vial. The sample is analyzed by HPLC using a BioRad HPX-87H column (BioRad, City, State) and 0.01 N H2SO4 as the mobile phase.
A sample containing a blend comprising 20% by weight anhydrous citric acid and 80% glucosamine hydrochloride was blended by tumbling for five minutes. The blended sample was poured into a tray. Eight aliquots were collected from different areas of the tray. The aliquots were diluted in 0.01N H2SO4, and then analyzed for citric acid by the method described in Example 6. The peak areas were normalized by the aliquot weights, and then averaged. The relative standard deviation for the eight aliquots was 7.7%.
A sample of GOA from Example 2, which had been stored at room temperature in a flask for approximately eleven months, having 12.3% citric acid was analyzed similarly. Eight aliquots were taken from the sample. Citric acid was determined by HPLC as described above. The peak areas were normalized by the aliquot weights, and then averaged. The relative standard deviation for the eight aliquots was 1.9%.
The analytical precision measured from eight aliquots of pure citric acid was 1.8% relative.

In the case of `N[C@H]1C(O)O[C@H](CO)[C@@H](O)[C@@H]1O.O=C(O)CC(O)(CC(=O)O)C(=O)O` [GOA from Example 2, glucosamine citrate], the degree of homogeneity (precision compared with pure citric acid) is reported as “high degree of homogeneity”.

For `O=C(O)CC(O)(CC(=O)O)C(=O)O` [citric acid], the “analytical precision measured from eight aliquots” value (pure citric acid, HPLC) was 1.8 % relative.
